Here are results for eight compounds from patent publication US9809623B2, “α4β7 peptide monomer and dimer antagonists” (Protagonist Therapeutics, Inc., priority 2014, dated 2017).

For orientation: IC50 means the concentration that inhibits the measured activity by half.

Read-outs that look alike come from different tables or passages of the source. Numbered stars: 1 amine (or outer) side, 2 acyl side, 3 side chain; on linkers, the order of the positions; unused ones are H or OH. Bridge positions count the residues as written; N and C are the ends. Square brackets hold non-standard residues; d marks the D form. Peptide text beside a SMILES is read from it. I, II: the chains in the order shown. Phe(4-COOH) = N[C@@H](Cc1ccc(C(=O)O)cc1)C(=O)O; 1Nal = N[C@@H](Cc1cccc2ccccc12)C(=O)O; 2Nal = N[C@@H](Cc1ccc2ccccc2c1)C(=O)O; Diglycolyl = O=C(COCC(=O)[*:2])[*:1]; NMeR = CN[C@@H](CCCNC(=N)N)C(=O)O; NMeK = CN[C@@H](CCCCN)C(=O)O; Pen = CC(C)(S)[C@H](N)C(=O)O; dNMeK = CN[C@H](CCCCN)C(=O)O

The target in one data set is T1, rh integrin α4β7 (Homo sapiens, UniProt P13612+P26010).
T1 construct: purchased R&D Systems 5397-A30
T1 sequence (P13612 34-977 limits assumed): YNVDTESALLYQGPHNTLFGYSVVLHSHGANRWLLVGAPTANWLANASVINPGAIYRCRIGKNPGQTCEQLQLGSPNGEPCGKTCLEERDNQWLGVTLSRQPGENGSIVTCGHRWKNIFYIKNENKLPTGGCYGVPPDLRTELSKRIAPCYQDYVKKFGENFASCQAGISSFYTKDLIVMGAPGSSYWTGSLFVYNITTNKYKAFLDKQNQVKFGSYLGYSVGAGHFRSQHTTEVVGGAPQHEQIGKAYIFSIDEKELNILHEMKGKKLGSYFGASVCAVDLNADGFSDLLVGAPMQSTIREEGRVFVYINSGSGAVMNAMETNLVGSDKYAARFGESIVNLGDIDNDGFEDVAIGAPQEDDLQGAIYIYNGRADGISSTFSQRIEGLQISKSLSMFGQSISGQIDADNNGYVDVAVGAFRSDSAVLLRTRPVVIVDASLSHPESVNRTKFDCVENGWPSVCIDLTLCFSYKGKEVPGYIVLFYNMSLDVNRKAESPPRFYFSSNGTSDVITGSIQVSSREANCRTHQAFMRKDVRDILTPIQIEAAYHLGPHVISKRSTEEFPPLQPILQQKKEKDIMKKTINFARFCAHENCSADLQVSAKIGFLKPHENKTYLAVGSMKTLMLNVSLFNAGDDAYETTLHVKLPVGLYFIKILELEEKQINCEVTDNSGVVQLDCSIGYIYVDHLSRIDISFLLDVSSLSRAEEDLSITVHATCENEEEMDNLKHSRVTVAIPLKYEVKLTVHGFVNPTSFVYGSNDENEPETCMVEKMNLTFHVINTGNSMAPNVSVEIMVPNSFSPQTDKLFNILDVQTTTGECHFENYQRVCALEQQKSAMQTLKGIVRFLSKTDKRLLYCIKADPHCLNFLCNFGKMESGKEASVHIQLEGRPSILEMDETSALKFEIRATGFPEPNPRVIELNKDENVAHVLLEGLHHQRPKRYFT
T1 sequence (P26010 20-723 limits assumed): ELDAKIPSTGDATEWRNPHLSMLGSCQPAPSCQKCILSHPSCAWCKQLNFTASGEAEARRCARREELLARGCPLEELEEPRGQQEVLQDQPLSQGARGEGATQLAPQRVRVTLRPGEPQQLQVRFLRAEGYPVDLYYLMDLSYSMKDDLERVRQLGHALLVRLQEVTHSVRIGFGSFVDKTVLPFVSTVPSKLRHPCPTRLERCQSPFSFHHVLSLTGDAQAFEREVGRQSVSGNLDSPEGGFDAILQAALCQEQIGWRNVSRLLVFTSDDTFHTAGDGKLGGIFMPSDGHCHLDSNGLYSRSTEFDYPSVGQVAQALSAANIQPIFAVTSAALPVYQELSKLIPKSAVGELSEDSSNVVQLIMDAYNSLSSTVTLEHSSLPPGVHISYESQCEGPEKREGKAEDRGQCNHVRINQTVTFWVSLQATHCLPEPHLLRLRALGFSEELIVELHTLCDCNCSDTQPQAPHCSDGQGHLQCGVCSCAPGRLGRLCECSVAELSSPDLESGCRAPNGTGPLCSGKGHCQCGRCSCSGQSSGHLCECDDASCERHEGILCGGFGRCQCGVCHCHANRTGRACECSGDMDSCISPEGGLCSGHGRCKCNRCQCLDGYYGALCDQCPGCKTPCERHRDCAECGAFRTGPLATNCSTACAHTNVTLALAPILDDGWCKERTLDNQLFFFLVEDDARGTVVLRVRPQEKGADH
The data set is described as follows: α4β7-MAdCAM Competition ELISA. The class given is binding. An outline of the steps:
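Recombinant human α4β7 was captured on nickel plates at 800 ng/well. Peptide in 3-fold serial dilution (final top 10 μM) competed with MAdCAM-1 (final 10 nM) for 1 h at room temperature in 50 mM Tris pH 7.6, 150 mM NaCl, 1 mM MnCl2 or MgCl2. Bound MAdCAM-1 was detected with anti-human IgG1-HRP/TMB at A450.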

In the next data set the target is T2, α4β1 (Homo sapiens, UniProt P05556+P13612, DEL729-798).
T2 construct: purchased R&D Systems 5668-A4
T2 sequence (P13612 34-977 limits assumed, stated change not applied): as the sequence (P13612 34-977 limits assumed) above
T2 sequence (P05556 21-728 limits assumed, stated change not applied): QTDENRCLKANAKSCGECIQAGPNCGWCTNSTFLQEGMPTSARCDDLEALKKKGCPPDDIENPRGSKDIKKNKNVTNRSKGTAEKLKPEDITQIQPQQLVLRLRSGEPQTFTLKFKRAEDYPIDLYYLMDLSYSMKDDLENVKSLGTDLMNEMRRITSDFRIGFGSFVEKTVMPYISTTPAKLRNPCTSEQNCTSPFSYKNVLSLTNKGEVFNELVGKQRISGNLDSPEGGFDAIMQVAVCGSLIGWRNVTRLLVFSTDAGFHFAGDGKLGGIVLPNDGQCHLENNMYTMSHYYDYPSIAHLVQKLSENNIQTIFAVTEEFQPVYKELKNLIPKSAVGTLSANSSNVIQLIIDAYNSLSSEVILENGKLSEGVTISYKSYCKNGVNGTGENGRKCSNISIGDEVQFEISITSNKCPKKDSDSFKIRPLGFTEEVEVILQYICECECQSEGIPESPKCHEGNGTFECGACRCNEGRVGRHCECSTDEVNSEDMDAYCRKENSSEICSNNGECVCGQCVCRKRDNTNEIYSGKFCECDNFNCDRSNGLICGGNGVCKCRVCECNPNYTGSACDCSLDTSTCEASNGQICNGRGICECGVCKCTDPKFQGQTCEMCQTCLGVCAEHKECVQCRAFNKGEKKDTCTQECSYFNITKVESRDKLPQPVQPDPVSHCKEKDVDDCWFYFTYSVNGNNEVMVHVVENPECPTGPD
The data set is described as follows: α4β1-VCAM Competition ELISA. It counts as binding. An outline of the steps:
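Recombinant α4β1 (60 nM final) competed with serially diluted peptides (top final 100 μM) for VCAM-1 Fc coated at 400 ng/well, in Tris pH 7.6 with 1 mM MnCl2 or MgCl2, for 2 h at 37 °C. Bound integrin was detected with anti-CD49d 9F10 plus HRP anti-mouse IgG, using TMB read at 450 nm.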

A short description of data set [1]: Simulated Intestinal Fluid (SIF) Stability Assay. It counts as in vitro ADME, porcine. As to conditions: pig, simulated intestinal fluid (SIF) with 1% porcine pancreatin. In a few lines: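 Peptides (22 μM final) incubated at 37 °C in FASSIF (pH 6.5) with 1% porcine pancreatin; aliquots quenched at various times and analyzed by LC-MS/MS against internal standard. Half-life from first-order exponential decay fit of percent remaining.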

The mark [2] stands for this setting: Table 4-B, read-out: ELISA α4β7 IC50.
The mark [3] stands for this setting: Table 4-B, read-out: ELISA_α4β1 IC50.
[4] abbreviates: pH 6.5, Table 4-C, t1/2, > means assay stopped at that time, read-out: SIF (porcine) Min.
Setting [5] is: Table 3-B, Potency (α4β7), range classes, read-out: α4β7 ELISA IC50.
Setting [6] is: Table 3-B, Selectivity (α4β1), range classes, read-out: α4β1 ELISA IC50.
The mark [7] stands for this setting: pH 6.5, Table 3-B, > means experiment was stopped at that time and half life was not reached, read-out: Stabilty SIF t1/2.

Turning to `CC(=O)N[C@@H]1C(=O)N(C)[C@@H](CCCNC(=N)N)C(=O)N[C@@H](CO)C(=O)N[C@@H](CC(=O)O)C(=O)N[C@@H]([C@@H](C)O)C(=O)N[C@@H](CC(C)C)C(=O)N[C@H](C(=O)N[C@@H](Cc2ccc3ccccc3c2)C(=O)N[C@@H](CCC(=O)O)C(=O)N[C@H](CCCCNC(=O)COCC(=O)NCCCC[C@@H](NC(=O)[C@H](CCC(=O)O)NC(=O)[C@H](Cc2ccc3ccccc3c2)NC(=O)[C@H]2NC(=O)[C@H](CC(C)C)NC(=O)[C@H]([C@@H](C)O)NC(=O)[C@H](CC(=O)O)NC(=O)[C@H](CO)NC(=O)[C@H](CCCNC(=N)N)N(C)C(=O)[C@@H](NC(C)=O)C(C)(C)SSC2(C)C)C(N)=O)C(N)=O)C(C)(C)SSC1(C)C` [compound 212, (Ac-Pen-N-Me-R-S-D-T-L-Pen-2-Nal-E-k-NH2)2-DIG] (I: Ac-[Pen][NMeR]SDTL[Pen][2Nal]E[dK]-NH2 / II: Ac-[Pen][NMeR]SDTL[Pen][2Nal]E[dK]-NH2; disulfide I:1-I:7, II:1-II:7 (inferred); linker I:10-II:10 via Diglycolyl (inferred)), the IC50 on rh integrin α4β7 (setting [2]) amounted to 2 nM; at α4β1 (setting [3]), 70 nM. Besides, in data set [1] (setting [4]), the half-life at 22 μM is 1.5 h.

With `CC(=O)N[C@H]1CSSC(C)(C)[C@@H](C(=O)N[C@H](CCCCN)C(N)=O)NC(=O)[C@H](CC(C)C)NC(=O)[C@H]([C@@H](C)O)NC(=O)[C@H](CC(=O)O)NC(=O)[C@H](CO)NC(=O)[C@H](CCCNC(=N)N)N(C)C1=O` [compound 202, Ac-C-N-Me-R-S-D-T-L-Pen-k-NH2] (Ac-C[NMeR]SDTL[Pen][dK]-NH2; disulfide 1-7), the IC50 on rh integrin α4β7 (setting [2]) stood at 87 nM; at α4β1 (setting [3]) it was 1620 nM. Also, in data set [1] (setting [4]), the half-life at 22 μM is over 6 h.

With `CC(=O)N[C@@H]1C(=O)N(C)[C@@H](CCCNC(=N)N)C(=O)N[C@@H](CO)C(=O)N[C@@H](CC(=O)O)C(=O)N[C@@H]([C@@H](C)O)C(=O)N[C@@H](CC(C)C)C(=O)N[C@H](C(=O)N[C@@H](Cc2cccc3ccccc23)C(=O)N[C@@H](CCC(=O)O)C(=O)N(C)[C@H](CCCCNC(=O)COCC(=O)NCCCC[C@H](C(N)=O)N(C)C(=O)[C@H](CCC(=O)O)NC(=O)[C@H](Cc2cccc3ccccc23)NC(=O)[C@H]2NC(=O)[C@H](CC(C)C)NC(=O)[C@H]([C@@H](C)O)NC(=O)[C@H](CC(=O)O)NC(=O)[C@H](CO)NC(=O)[C@H](CCCNC(=N)N)N(C)C(=O)[C@@H](NC(C)=O)C(C)(C)SSC2(C)C)C(N)=O)C(C)(C)SSC1(C)C` [compound 44] (I: Ac-[Pen][NMeR]SDTL[Pen][1Nal]E[dNMeK]-NH2 / II: Ac-[Pen][NMeR]SDTL[Pen][1Nal]E[dNMeK]-NH2; disulfide I:1-I:7, II:1-II:7; linker I:10-II:10 via Diglycolyl), the IC50 at rh integrin α4β7 (setting [5]) is under 10 nM; on α4β1 (setting [6]), 100 to 500 nM. For the same compound, the half-life at 22 μM in data set [1] (setting [7]) was over 3 h.

As to `CC(=O)N[C@@H]1C(=O)N(C)[C@@H](CCCNC(=N)N)C(=O)N[C@@H](CO)C(=O)N[C@@H](CC(=O)O)C(=O)N[C@@H]([C@@H](C)O)C(=O)N[C@@H](CC(C)C)C(=O)N[C@H](C(=O)N[C@@H](Cc2ccc3ccccc3c2)C(=O)N[C@@H](CCC(=O)O)C(=O)N[C@H](CCCCN)C(N)=O)C(C)(C)SSC1(C)C` [compound 210, Ac-Pen-N-Me-R-S-D-T-L-Pen-2-Nal-E-k-NH2] (Ac-[Pen][NMeR]SDTL[Pen][2Nal]E[dK]-NH2; disulfide 1-7), the IC50 turned out to be 11 nM on rh integrin α4β7 (setting [2]) and 200 nM on α4β1 (setting [3]). Moreover, the half-life at 22 μM in data set [1] (setting [4]) was over 5 h.

Turning to `CC(=O)N[C@@H]1C(=O)N(C)[C@@H](CCCNC(=N)N)C(=O)N[C@@H](CO)C(=O)N[C@@H](CC(=O)O)C(=O)N[C@@H]([C@@H](C)O)C(=O)N[C@@H](CC(C)C)C(=O)N[C@H](C(=O)N[C@@H](Cc2c[nH]c3ccccc23)C(=O)N[C@@H](CCC(=O)O)C(=O)N(C)[C@@H](CCCCNC(=O)COCC(=O)NCCCC[C@@H](C(N)=O)N(C)C(=O)[C@H](CCC(=O)O)NC(=O)[C@H](Cc2c[nH]c3ccccc23)NC(=O)[C@H]2NC(=O)[C@H](CC(C)C)NC(=O)[C@H]([C@@H](C)O)NC(=O)[C@H](CC(=O)O)NC(=O)[C@H](CO)NC(=O)[C@H](CCCNC(=N)N)N(C)C(=O)[C@@H](NC(C)=O)C(C)(C)SSC2(C)C)C(N)=O)C(C)(C)SSC1(C)C` [compound 215, [Ac-Pen-(N-Me-Arg)-Ser-Asp-Thr-Leu-Pen-Trp-Glu-(N-Me-Lys)-NH2]2-DIG] (I: Ac-[Pen][NMeR]SDTL[Pen]WE[NMeK]-NH2 / II: Ac-[Pen][NMeR]SDTL[Pen]WE[NMeK]-NH2; disulfide I:1-I:7, II:1-II:7 (inferred); linker I:10-II:10 via Diglycolyl (inferred)), the IC50 at rh integrin α4β7 (setting [2]) came to 2.2 nM; on α4β1 (setting [3]) it was 270 nM. Besides, the half-life at 22 μM in data set [1] (setting [4]) was over 6 h.

For the compound `CC(=O)N[C@@H]1C(=O)N(C)[C@@H](CCCNC(=N)N)C(=O)N[C@@H](CO)C(=O)N[C@@H](CC(=O)O)C(=O)N[C@@H]([C@@H](C)O)C(=O)N[C@@H](CC(C)C)C(=O)N[C@H](C(=O)N[C@@H](Cc2c[nH]c3ccccc23)C(=O)N[C@H](CCC(=O)O)C(=O)N[C@H](CCCCNC(=O)COCC(=O)NCCCC[C@@H](NC(=O)[C@@H](CCC(=O)O)NC(=O)[C@H](Cc2c[nH]c3ccccc23)NC(=O)[C@H]2NC(=O)[C@H](CC(C)C)NC(=O)[C@H]([C@@H](C)O)NC(=O)[C@H](CC(=O)O)NC(=O)[C@H](CO)NC(=O)[C@H](CCCNC(=N)N)N(C)C(=O)[C@@H](NC(C)=O)C(C)(C)SSC2(C)C)C(N)=O)C(N)=O)C(C)(C)SSC1(C)C` [compound 211, (Ac-Pen-N-Me-R-S-D-T-L-Pen-W-e-k-NH2)2-DIG] (I: Ac-[Pen][NMeR]SDTL[Pen]W[dE][dK]-NH2 / II: Ac-[Pen][NMeR]SDTL[Pen]W[dE][dK]-NH2; disulfide I:1-I:7, II:1-II:7 (inferred); linker I:10-II:10 via Diglycolyl (inferred)), the results for the IC50 on rh integrin α4β7 (setting [2]) and at α4β1 (setting [3]) were 3 nM and 302 nM, respectively. Besides, the half-life at 22 μM in data set [1] (setting [4]) was over 5 h.

Turning to `CC(=O)N[C@@H]1C(=O)N(C)[C@@H](CCCNC(=N)N)C(=O)N[C@@H](CO)C(=O)N[C@@H](CC(=O)O)C(=O)N[C@@H]([C@@H](C)O)C(=O)N[C@@H](CC(C)C)C(=O)N[C@H](C(=O)N[C@@H](Cc2ccc(C(=O)O)cc2)C(=O)N[C@@H](CCC(=O)O)C(=O)N(C)[C@@H](CCCCNC(=O)COCC(=O)NCCCC[C@@H](C(N)=O)N(C)C(=O)[C@H](CCC(=O)O)NC(=O)[C@H](Cc2ccc(C(=O)O)cc2)NC(=O)[C@H]2NC(=O)[C@H](CC(C)C)NC(=O)[C@H]([C@@H](C)O)NC(=O)[C@H](CC(=O)O)NC(=O)[C@H](CO)NC(=O)[C@H](CCCNC(=N)N)N(C)C(=O)[C@@H](NC(C)=O)C(C)(C)SSC2(C)C)C(N)=O)C(C)(C)SSC1(C)C` [compound 147] (I: Ac-[Pen][NMeR]SDTL[Pen][Phe(4-COOH)]E[NMeK]-NH2 / II: Ac-[Pen][NMeR]SDTL[Pen][Phe(4-COOH)]E[NMeK]-NH2; disulfide I:1-I:7, II:1-II:7; linker I:10-II:10 via Diglycolyl), the IC50 on rh integrin α4β7 (setting [5]) was under 10 nM; on α4β1 (setting [6]), 100 to 500 nM. In addition, the half-life at 22 μM in data set [1] (setting [7]) was over 5 h.

Turning to `CC(=O)N[C@H]1CSSC(C)(C)[C@@H](C(=O)N[C@@H](CCC(=O)O)C(=O)N[C@H](CCCCNC(=O)COCC(=O)NCCCC[C@@H](NC(=O)[C@H](CCC(=O)O)NC(=O)[C@H]2NC(=O)[C@H](CC(C)C)NC(=O)[C@H]([C@@H](C)O)NC(=O)[C@H](CC(=O)O)NC(=O)[C@H](CO)NC(=O)[C@H](CCCNC(=N)N)N(C)C(=O)[C@@H](NC(C)=O)CSSC2(C)C)C(N)=O)C(N)=O)NC(=O)[C@H](CC(C)C)NC(=O)[C@H]([C@@H](C)O)NC(=O)[C@H](CC(=O)O)NC(=O)[C@H](CO)NC(=O)[C@H](CCCNC(=N)N)N(C)C1=O` [compound 205, (Ac-C-N-Me-R-S-D-T-L-Pen-E-k-NH2)2-DIG] (I: Ac-C[NMeR]SDTL[Pen]E[dK]-NH2 / II: Ac-C[NMeR]SDTL[Pen]E[dK]-NH2; disulfide I:1-I:7, II:1-II:7 (inferred); linker I:9-II:9 via Diglycolyl (inferred)), the IC50 turned out to be 2.4 nM on rh integrin α4β7 (setting [2]) and 444 nM at α4β1 (setting [3]). The half-life at 22 μM in data set [1] (setting [4]) is over 6 h.
